Assay results as given in PMC11983664, “Preclinical Pharmacokinetic Assessment of a Promising Vasorelaxant, Analgesic, and Anti‐Inflammatory Prototype 5‐[1‐(4‐Fluorophenyl)‐1H‐pyrazol‐4‐yl]‐2H‐tetrazole (LQFM020) Through Selective Bioanalytical HPLC‐PDA‐Based Method” (Biomedical Chromatography, 2025).
Where “and” joins values, the source holds several entries; their conditions need not be identical. Equal values may be shown once. Entries after “also recorded” stand apart in the source; their conditions may differ. Read-outs that look alike come from different tables or passages of the source.

Columns and labels:
[1] = Pharmacokinetic study after oral administration in rats; format: in vivo, male Wistar rats
Protocol: (§1) Male Wistar rats (250–300 g) obtained from Central Vivarium of Federal University of Goiás (UFG) were housed under a 12‐h light/dark cycle (22°C–23°C), with free access to food and water. This in vivo pharmacokinetic study was conducted in accordance with Ethical Principles in Animal Research, adopted by International Guiding Principles for Biomedical Research Involving Animals and approved by the Institutional Ethics in Research Committee at the UFG (Protocol CEUA/UFG 085/17). All efforts were made to minimize animal suffering as preconized by regulatory institutions.
(§2) LQFM020 was prepared in physiological solution containing DMSO 1% at dose of 10 mg/kg for intravenous administration (i.v., bolus), and then, blood samples (0.5 mL) were collected at 0, 0.5, 1, 2, 3, 4, 5, 6, and 24 h in heparinized microtubes. Oral administration (p.o.) was performed at LQFM020 dose of 9, 18, or 36 mg/kg prepared in physiological solution with DMSO 1%. Blood samples (0.5 mL) were collected at 0, 0.5, 1, 2, 3, 4, 5, 6, and 24 h in heparinized microtubes. Plasma samples were obtained by blood centrifugation (3000 g, 10 min) and were stored at −20°C.
(§3) LQFM020 pharmacokinetic parameters were obtained by non‐compartmental model, including peak plasma concentration (Cmax) and time to reach it (Tmax), elimination half‐life (t1/2), elimination constant (Kel), total area under the curve of plasma concentration versus time (AUCT), apparent distribution volume (Vd), clearance (Cl), and mean residence time (MRT). These pharmacokinetic parameters were calculated by Phoenix Connect 1.3.1 software (Certara, Princeton, NJ, USA).
LQFM020 absolute oral bioavailability F(%) was obtained applying AUCT and dose (D) from p.o. and i.v. administration, according to the equation: F%=AUCp.o./AUCi.v.×Di.v./Dp.o.×100

[2] = Pharmacokinetic study after intravenous bolus administration in rats; format: in vivo, male Wistar rats; settings: i.v. 10 mg/kg, male adult rats; for AUC(0-t) / half-life: male, Wistar, rat, plasma, iv
Protocol: as §1, §2, §3

CYP3A4 = CYP3A4 (Homo sapiens, UniProt P08684); assay: CYP3A enzyme inhibition in vitro analysis (midazolam biotransformation, HPLC-PDA); format: in vitro ADME; settings: LQFM020 100 μg/mL, midazolam 10 μg/mL, 37°C, 2 h
Protocol: LQFM020 was evaluated for its ability to inhibit CYP3A4—the main subfamily responsible for drug metabolism in humans. […] Cold methanol was added after stirring these mixtures at 37°C for 2 h to stop the reaction and then centrifuged at 13,000 g for 10 min. The supernatant was filtered in Millex 0.22 μm pore and injected into HPLC system for the quantitation of midazolam. All samples were prepared in quintuplicate and analyzed by a HPLC‐PDA‐based method rigorously validated in our laboratory routine for the midazolam metabolites' quantification 1‐hydroxydazolam (1‐HMDZ) and 4‐hydroxydazolam (4‐HMDZ) (Ramirez De Oliveira et al. [2015]).

[3] = Stability of LQFM020 in rat plasma (short-term, freeze-thaw, long-term); format: in vitro ADME; settings: n = 3
Protocol: Bioanalytical method validation was conducted in accordance with the guideline of Brazilian Health Surveillance Agency (ANVISA) RDC 27/2012, analyzing several parameters, such as matrix effect, recovery, selectivity, linearity, precision and accuracy, and stabilities (short‐term, long‐term, and freezing/thawing cycles) (ANVISA [2012]).
Indeed, rat plasma concentrations (n = 3) of LQC and HQC presented a nonsignificant degradation below ±15% (RE), ranging from 89.2 ± 2.2% (short term) to 107.5 ± 1.8% (long term) at the end of storage condition times, as shown in Table 2.

3T3 cell = tested on: 3T3 cell; set-up: method as in de Oliveira et al. [2017]; settings: 3T3 cells; ref de Oliveira et al. [2017]; cited from earlier work
[4] = mouse, in vivo, po; cited from earlier work
[5] = set-up: method as in earlier work; settings: oral; ref Davies et al. [2000]; Dhondt et al. [2017]; Gong et al. [2012]; cited from earlier work
[6] = Wistar, rat, plasma, oral 9 mg/kg, male adult rats, mean ± SEM, n = 3
[7] = Wistar, rat, plasma, oral 18 mg/kg, male adult rats, mean ± SEM, n = 3
[8] = Wistar, rat, plasma, oral 36 mg/kg, male adult rats, mean ± SEM, n = 3
[9] = individual animals 1-3, 10 mg/kg
[10] = 10 mg/kg, individual animals 1-3

Sequence of CYP3A4 (P08684 whole entry): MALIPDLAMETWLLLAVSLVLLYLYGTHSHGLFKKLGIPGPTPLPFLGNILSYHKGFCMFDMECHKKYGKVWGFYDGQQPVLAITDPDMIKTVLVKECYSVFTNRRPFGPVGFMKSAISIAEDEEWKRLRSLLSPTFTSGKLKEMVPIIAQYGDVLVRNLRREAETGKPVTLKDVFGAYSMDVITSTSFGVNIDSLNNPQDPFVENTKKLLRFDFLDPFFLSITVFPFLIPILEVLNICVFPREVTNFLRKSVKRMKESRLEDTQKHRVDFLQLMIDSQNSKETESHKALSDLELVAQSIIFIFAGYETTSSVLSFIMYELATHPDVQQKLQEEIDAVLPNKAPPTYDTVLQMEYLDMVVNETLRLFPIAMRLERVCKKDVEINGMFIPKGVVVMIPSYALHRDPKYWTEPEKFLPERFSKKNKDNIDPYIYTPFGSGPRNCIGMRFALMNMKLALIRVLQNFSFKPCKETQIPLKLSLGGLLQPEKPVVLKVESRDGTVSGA

Fc1ccc(-n2cc(-c3nn[nH]n3)cn2)cc1 [LQFM020, 5‐[1‐(4‐fluorophenyl)‐1H‐pyrazol‐4‐yl]‐2H‐tetrazole]
AUC(0-t) [1, 6]: 69.8 ± 5.33 µg·h/mL | Cmax [1, 6]: 16600 ± 4410 ng/mL | Tmax [1, 6]: 1.66 ± 0.66 h | Vd/F [1, 6]: 0.86 ± 0.4 L/kg | half-life ([1]; Wistar, rat, plasma, oral 9 mg/kg, male adult rats, mean ± SEM, n = 3, read-out: t1/2 (converted)): 5.82 ± 2.35 h | AUC(0-t) [1, 7]: 110 ± 17.1 µg·h/mL | Cmax [1, 7]: 26600 ± 2030 ng/mL | Tmax [1, 7]: 0.83 ± 0.17 h | Vd/F [1, 7]: 1.44 ± 0.36 L/kg | half-life ([1]; Wistar, rat, plasma, oral 18 mg/kg, male adult rats, mean ± SEM, n = 3, read-out: t1/2 (converted)): 5.85 ± 0.96 h | AUC(0-t) [1, 8]: 287 ± 82.4 µg·h/mL | Cmax [1, 8]: 55200 ± 21100 ng/mL | Tmax [1, 8]: 1.67 ± 0.66 h | Vd/F [1, 8]: 1.16 ± 0.26 L/kg | half-life ([1]; Wistar, rat, plasma, oral 36 mg/kg, male adult rats, mean ± SEM, n = 3, read-out: t1/2 (converted)): 6.74 ± 2.47 h | bioavailability ([1]; male, Wistar, plasma, oral, rat, from AUC and dose of p.o. and i.v. (10 mg/kg) administration, read-out: absolute oral bioavailability F(%)): 46% | half-life ([1]; male, Wistar, rat, plasma, oral administration, rats, overall, read-out: elimination half-time (t1/2) (converted)): ~6 h | ClT ([1]; oral 9 mg/kg, male adult rats, mean ± SEM, n = 3): 158 ± 14 mL/day/kg | ClT ([1]; oral 18 mg/kg, male adult rats, mean ± SEM, n = 3): 230 ± 29 mL/day/kg | ClT ([1]; oral 36 mg/kg, male adult rats, mean ± SEM, n = 3): 216 ± 86 mL/day/kg | AUCT [2, 9]: 1064.89 µg·h/mL and 1314.07 µg·h/mL | ClT/F [2, 9]: 12 mL/day/kg and 13 mL/day/kg and 10 mL/day/kg | Vd/F [2, 9]: 0.032 L/kg and 0.041 L/kg and 0.036 L/kg | t1/2 [2, 9]: 3.06 h and 3.26 h | ClT/F ([2]; mean ± SEM, n = 3): 12 ± 0 mL/day/kg | Vd/F ([2]; mean ± SEM, n = 3): 0.03 ± 0.00 L/kg | t1/2 ([2]; mean ± SEM, n = 3, 10 mg/kg): 3.05 ± 0.12 h | AUC(0-t) [2, 10]: 1230 µg·h/mL | half-life [2, 10]: 2.83 h | AUC(0-t) ([2]; 10 mg/kg, mean ± SEM, n = 3): 1220 ± 77.9 µg·h/mL | half-life ([2]; 10 mg/kg, mean ± SEM, n = 3): ~3 h | inhibition of CYP3A4 (peak areas of midazolam metabolites 1-HMDZ and 4-HMDZ vs negative control) (CYP3A4): no significant effect; also recorded: absence of inhibition; also recorded: does not change the biotransformation | Stability, Accuracy (RE) (Mean ± CV%) ([3]; freeze–thaw (3 cycles), nominal 0.75 μg/mL): 96.4 ± 2.6% | Stability, Accuracy (RE) (Mean ± CV%) ([3]; freeze–thaw (3 cycles), nominal 15 μg/mL): 96.0 ± 5.3% | Stability, Accuracy (RE) (Mean ± CV%) ([3]; long duration (30 days, −20°C), nominal 0.75 μg/mL): 102.1 ± 6.5% | Stability, Accuracy (RE) (Mean ± CV%) ([3]; long duration (30 days, −20°C), nominal 15 μg/mL): 107.5 ± 1.8% | Stability, Accuracy (RE) (Mean ± CV%) ([3]; short duration (RT, 4 h), nominal 0.75 μg/mL): 89.2 ± 2.2% | Stability, Accuracy (RE) (Mean ± CV%) ([3]; short duration (RT, 4 h), nominal 15 μg/mL): 94.5 ± 5.2% | concentrations reducing 3T3 cell viability (3T3 cell): 350 to 1400 µM | orally well tolerated dose [4]: ≤ 2000 mg/kg

Cc1ccc(-c2cc(C(F)(F)F)nn2-c2ccc(S(N)(=O)=O)cc2)cc1 [celecoxib]
Tmax [5]: 2 to 4 h
